Read-outs that look alike come from different tables or passages of the source.

Assay [1] relates to mesenchymal-like TNBC cell lines. Put plainly: Cell proliferation/viability assay and IC50 determination (Example 3). It is filed as cell-based, human. The conditions noted are these: 72 hours; basal-like, mesenchymal-like and normal cells compared. How it is done:
Cell proliferation/viability assays and IC50 determinations. All cell lines were maintained in culture as previously described herein. Breast cancer cell lines and HMECs were seeded (3,000-10,000 cells) in quadruplicate wells in 96-well plates. Media was then replaced with either fresh media (control) or media containing half-log serial dilutions of the following drugs: Sorafenib, OSi-906, BMS-754807 and PF2341066 purchased from Selleck Chemicals (Houston, TX) Viability was determined from measuring fluorescent intensity after metabolic reduction of Alamar Blue in the presence/absence of drug after 72 hours. Viability assays were performed in triplicate and replicates were normalized to untreated wells. Inhibitory concentration (IC50) values were determined after double-log transformation of dose response curves.

Assay [2] relates to activated caspase 3/7 in AR-positive TNBC cell lines. Put plainly: Caspase 3/7 activity (Caspase-Glo). It is filed as cell-based, human. The conditions noted are these: 48 h; ADR 3 μM, bicalutamide 50 μM, GDC-0941 3 μM, GDC-0980 1 μM. How it is done:
Cell lines were seeded in triplicate in 96-well plates. Media was removed and replaced with media containing vehicle (control) or indicated drugs. After 48 hrs, apoptosis was determined by measuring luciferase from activated caspase 3/7 upon addition of Caspase-Glo reagent (Promega, Madison, WI). Relative levels of caspase activity were normalized to viable cell number determined by metabolic reduction of Alamar blue.

Assay [3] relates to LAR TNBC cell lines. Put plainly: Cell proliferation/viability assay (alamarBlue) and IC50 determination. The conditions noted are these: 72 hours. It is filed as cell-based, human. The method, then:
(§1) Cell proliferation/viability assays and IC50 determinations. All cell lines and culture conditions used can be found in Supplemental Methods (Table 5). Short tandem repeat (STR) DNA fingerprinting analysis was performed on all TNBC cell lines used in this study (Cell Line Genetics). […] Breast cancer cell lines and HMECs were seeded (3,000-10,000 cells) in quadruplicate wells in 96-well plates. […] Medium was then replaced with either fresh medium (control) or medium containing half-log serial dilutions of the following drugs: 0.3-30 μM olaparib (ChemieTek), 0.3-30 μM veliparib (ChemieTek), 1-100 μM bicalutamide (IPR Pharmaceutical), 0.3-30 μM cisplatin (APP Pharmaceutical), 3-300 nM NVP-BEZ235 (Chemdea), 10-1000 nM 17-DMAG (ChemieTek), and 0.1-10 μM dasatinib (LC Laboratories). Viability was determined from measuring fluorescent intensity after metabolic reduction of alamarBlue in the presence/absence of the drug after 72 hours. Viability assays were performed in triplicate, and replicates were normalized to untreated wells. […] For analysis of cell-line drug assays, data generated from the different cell lines representative of TNBC subtypes were compared using the nonparametric Mann-Whitney U test. All analyses and graphic representations were performed using Prism software (version 4.0c; GraphPad Software), and values are represented as the mean±SEM.

The test system of assay [4] is mesenchymal-like (M and MSL) TNBC cell lines. Described as above. It is filed as cell-based, human. The conditions noted are these: 72 hours. How it is done: (§2) Cell proliferation/viability assays and IC50 determinations. All cell lines and culture conditions used can be found in Supplemental Methods (Table 5). Short tandem repeat (STR) DNA fingerprinting analysis was performed on all TNBC cell lines used in this study (Cell Line Genetics). […] Breast cancer cell lines and HMECs were seeded (3,000-10,000 cells) in quadruplicate wells in 96-well plates. […] Viability was determined from measuring fluorescent intensity after metabolic reduction of alamarBlue in the presence/absence of the drug after 72 hours. Viability assays were performed in triplicate, and replicates were normalized to untreated wells. […] For analysis of cell-line drug assays, data generated from the different cell lines representative of TNBC subtypes were compared using the nonparametric Mann-Whitney U test. All analyses and graphic representations were performed using Prism software (version 4.0c; GraphPad Software), and values are represented as the mean±SEM.

Assay [5] has as its system basal-like (BL1 and BL2) TNBC cell lines. Described as above. It is filed as cell-based, human. The method, then:
as §1

Assay [6] concerns TNBC cell lines. Put plainly: Cell proliferation/viability assay (alamarBlue), panel of TNBC cell lines (Example 1). It is filed as cell-based, human. Particulars: Homo sapiens; majority of TNBC cell lines; read-out: IC50 not achieved using the highest dose. How it is done: as §2
On the technique in general: The colour change of resazurin is a common sign of viable cells or microbes.

For assay [7], the system named is MDA-MB-453 cells. Put plainly: Sub-G1 (sub 2N DNA) fraction by FACs analysis. Type of assay: cell-based, human. The method, then: FIGS. 31A-31B: Combined inhibition of AR and PI3K increases apoptotic cell death in AR+TNBC cell lines. (31A) Bar graphs display relative caspase 3/7 activity (RLU) normalized to viable cell number 48 hrs after treatment with vehicle, positive control (3 μM adriamycin, ADR), 50 μM bicalutamide (CDX) and 3 μM GDC-0941 or 1 μM GDC-0980 alone or in combination with CDX. (31B) Histograms show representative cell cycle analysis of MDA-MB-453 cells treated with similar conditions as above. Indicated percentages represent the fraction of hypodiploid DNA (sub-G1), indicative of late stage apoptotic DNA fragmentation.
In addition to caspase activation, the percentage of sub 2N DNA (sub-G1)-containing cells (indicative of late stage apoptotic DNA fragmentation) was quantitated by FACs analysis. […] Therefore, the decreased viability of AR-positive TNBC cell lines treated with a combination of AR and PI3K inhibitors can be, in part, attributed to apoptosis.

Assay [8] has as its system AR-expressing TNBC cell lines. Put plainly: Viability of AR-expressing TNBC cell lines, PI3K inhibitors alone or with bicalutamide (2-D). Type of assay: cell-based, human. The conditions noted are these: alone, 72 h. The method, then:
All cell lines were maintained in culture as previously described (JCI ref). Breast cancer cell lines and HMECs were seeded (3,000-10,000 cells) in quadruplicate wells in 96-well plates. […] Viability was determined from measuring fluorescent intensity after metabolic reduction of Alamar Blue in the presence/absence of drug after 72 hours. Viability assays were performed in triplicate and replicates were normalized to untreated wells.

Assay [9] has as its system p-AKT, p-S6 and AR in AR-expressing TNBC cell lines. Put plainly: Immunoblot analysis of the PI3K/mTOR pathway and AR. The conditions noted are these: for activated AKT: 24 h or 48 h. It is filed as cell-based, human. The method, then:
Immunoblot analysis was performed on cell lystates from untreated cells or cells treated alone or in combination with CDX, GDC-0941 and GDC-0980 to evaluate attenuation of the PI3K/mTOR pathway. […] Cells were trypsinized, lysed and relative protein expression was determined by Western blot as previously described (JCI reference) with the following antibodies; the AR polyclonal antibody, SC-N20 (Santa Cruz Biotechnology), pS[…]/236 (Cell Signaling #4856), S6 (Cell Signaling #2317), pAKT-5473 (Cell Signaling #9271), AKT (Cell Signaling #9272), PARP (Cell Signaling #9542) and GAPDH (Millipore).

Assay [10] relates to CAL-148, MFM-223 and MDA-MB-453 cells. Put plainly: 3-D forced suspension viability assay. It is filed as cell-based, human. Particulars: increasing doses, alone, 72 h; to a lesser degree than in 2-D. The method, then:
CAL-148, MFM-223 and MDA-MB-453 cells were plated (10,000 cells/well) in quadruplicate into 96-well plates coated with 0.9% agarose diluted in corresponding media. Following 5 d of growth, cells were then treated with increasing half-log concentrations of GDC-0941 (10-3000 nM), GDC0980 (1 nM −300 nM), BKM120 (10 nM-3000 nM) and NVP-BEZ235 (1 nM-300 nM) alone or in combination with 25 μM bicalutamide (CDX) for an additional 72 h, upon which cells were imaged and viability determined by Alamar blue.

In assay [11] the test system is CAL-148 and MDA-MB-453 xenograft tumors. Put plainly: Xenograft tumor studies (Example 2). It is filed as in vivo, mice. Particulars: single agent alone; bicalutamide 100 mg/kg/d, GDC0980 7.5 mg/kg/d, NVP-BEZ235 50 mg/kg/d p.o. The method, then:
Five-week-old female athymic nude-Foxnlnu mice (Harlan Sprague-Dawley) were injected (s.c.) with either ˜4×10^6 (CAL-148) or ˜10×10^6 (MDA-MB-453) cells suspended in media (200 μL) into each flank using a 22-gauge needle. Once tumors reached a volume of 25-50 mm^3, mice were randomly allocated to treatment or vehicle arms. Treatments included bicalutamide p.o. (100 mg/kg/d), GDC0980 p.o. (7.5 mg/kg/d) in 5% DMSO, 0.5% carboxymethyl cellulose (MCT) or NVP-BEZ235 p.o. (50 mg/kg/d) in 0.5% MCT or the combination of bicalutamide and either GDC-0980 or NVP-BEZ235 according to the above concentrations. Tumor diameters were serially measured at the indicated times with digital calipers and tumor volumes were calculated as width^2×length/2.

The subject of assay [12] is BRCA1-null cell line HCC1937. Put plainly: Cell proliferation/viability assay (alamarBlue) and IC50 determination. Type of assay: cell-based. Particulars: Homo sapiens, 72 hours, viability. How it is done: as §1
Assay [13] deals with BRCA2-mutant cell line HCC1599. The description is as above. Particulars: Homo sapiens, 72 hours, viability. Type of assay: cell-based. The method, then:
as §1

For assay [14], the system named is BRCA1-mutant MDA-MB-436 cell line. The description is as above. It is filed as cell-based. Particulars: Homo sapiens, 72 hours, viability. The method, then:
as §1

Take `C[C@]1(O)C[C@@H](c2nc(-c3ccc4ccc(-c5ccccc5)nc4c3)c3c(N)nccn32)C1` [OSI-906]: the “viability (half-maximal inhibitory concentration) across TNBC subtypes” value in assay [1] is recorded as “selectively inhibits viability of mesenchymal-like TNBC cell lines”.

In the case of `COc1cccc2c1C(=O)c1c(O)c3c(c(O)c1C2=O)C[C@@](O)(C(=O)CO)C[C@@H]3O[C@H]1C[C@H](N)[C@H](O)[C@H](C)O1` [adriamycin], the “caspase 3/7 activation” value in [2] is given as “robust caspase activation”.

For `C[C@@]1(C(=O)Nc2ccc(F)nc2)CCCN1c1nc(Nc2cc(C3CC3)n[nH]2)c2cccn2n1` [BMS-754807], the “viability (half-maximal inhibitory concentration) across TNBC subtypes” value in assay [1] is on record as “selectively inhibits viability of mesenchymal-like TNBC cell lines”.

Regarding `Cc1nc(Nc2ncc(C(=O)Nc3c(C)cccc3Cl)s2)cc(N2CCN(CCO)CC2)n1` [dasatinib], the half-inhibitory concentration (IC50) in assay [3] (Homo sapiens, LAR lines) turned out to be 88 µM; in assay [4] (Homo sapiens, mesenchymal-like subtypes (M and MSL)), 22 µM.

With `CC(O)(CS(=O)(=O)c1ccc(F)cc1)C(=O)Nc1ccc(C#N)c(C(F)(F)F)c1` (stereo not shown) [bicalutamide], the 50% inhibitory concentration (IC50) in [5] (Homo sapiens, 72 h, read-out: IC50) was over 600 µM; in assay [3] (Homo sapiens, LAR lines), 227 µM; in assay [6], over 500 µM; in [4] (Homo sapiens, subset of mesenchymal-like cell lines that express low levels of AR (HS578T, BT549, CAL-51, MDA-MB-231)) it was 361 µM. Besides, the sub-G1 fraction in assay [7] (48 h after treatment, increase from 5.25%) is reported as 18.44%.

For the molecule `CS(=O)(=O)N1CCN(Cc2cc3nc(-c4cccc5[nH]ncc45)nc(N4CCOCC4)c3s2)CC1` [GDC-0941], in assay [8], the “viability, single agent” value was “displayed efficacy”. Further, in [2], the “caspase 3/7 activation” value is “caused caspase activation”. For the same molecule, in assay [9], the “activated AKT” value is reported as “decreased activated AKT”. The “cell aggregate size and viability” value in assay [10] is “decreased cell aggregate size and viability”. Further, the “sub-G1 fraction” value in [7] (48 h, alone) was “higher sub-G1 fraction”.

Turning to `CO[C@H]1/C=C\C=C(/C)C(=O)NC2=CC(=O)C(NCCN(C)C)=C(C[C@@H](C)C[C@H](OC)[C@H](O)[C@@H](C)/C=C(\C)[C@@H]1OC(N)=O)C2=O` [17-DMAG, 17-dimethylaminoethylamino-17-demethoxy-geldanamycin], the concentration for half-maximal inhibition (IC50) in assay [5] (72 hours, read-out: average IC50) was determined as 0.081 µM; in assay [3] (LAR cell lines), 0.016 µM; in assay [4] (mesenchymal-like cell lines), 0.117 µM.

As to `Cc1c(CN2CCN(C(=O)[C@H](C)O)CC2)sc2c(N3CCOCC3)nc(-c3cnc(N)nc3)nc12` [GDC-0980], in [8], the “viability, single agent” value is “displayed efficacy”. The “caspase 3/7 activation” value in [2] is on record as “caused caspase activation”. Further, the “activated AKT” value in assay [9] is reported as “decreased activated AKT”. In addition, the AR levels result in assay [9] (alone) is on record as “decreased AR levels”. In addition, the “mTOR activity as measured by levels of phosphorylated S6” value in [9] (compared with GDC-0941) is given as “more effective at decreasing mTOR activity”. Also, in assay [11], the tumor growth entry was “significantly decreased tumor growth”. Also, the “cell aggregate size and viability” value in assay [10] was “decreased cell aggregate size and viability”. Moreover, in assay [7] (48 h, alone), the “sub-G1 fraction” value is on record as “higher sub-G1 fraction”.

With `C[C@]1(c2nc3c(C(N)=O)cccc3[nH]2)CCCN1` [veliparib], the IC50 in assay [12] was 4 µM; in assay [13], over 30 µM; in [14], 18 µM.

Regarding `CNC(=O)c1cc(Oc2ccc(NC(=O)Nc3ccc(Cl)c(C(F)(F)F)c3)cc2)ccn1` [sorafenib], the “viability (half-maximal inhibitory concentration) across TNBC subtypes” value in assay [1] is “selectively inhibits viability of mesenchymal-like TNBC cell lines”.

Consider `O=C(c1cc(Cc2n[nH]c(=O)c3ccccc23)ccc1F)N1CCN(C(=O)C2CC2)CC1` [olaparib], for which the results for the IC50 in assay [12], in assay [13] and in assay [14] were over 100 µM, over 100 µM and 14 µM, respectively.

On to `C[C@@H](Oc1cc(-c2cnn(C3CCNCC3)c2)cnc1N)c1c(Cl)ccc(F)c1Cl` [PF2341066], for which, in assay [1], the “viability (half-maximal inhibitory concentration) across TNBC subtypes” value is “selectively inhibits viability of mesenchymal-like TNBC cell lines”.

As usually defined, the IC50 is the point on the concentration scale where inhibition reaches its midpoint.

The record behind these values is patent publication US11788147B2, “Markers of triple-negative breast cancer and uses thereof” (Vanderbilt University, priority 2011, dated 2023).
